Experimental data as given in patent US9376429B2, “Sodium channel blockers, preparation method thereof and use thereof” (Daewoong Pharmaceutical Co., Ltd., priority 2012, dated 2016).

Molecular target: T1, sodium ion channel (Nav1.7) (Homo sapiens, UniProt Q15858)
T1 construct: host or cells: HEK293
Test: Blocking effect against sodium ion channel (Nav1.7), IonFlux16 auto patch clamp, hNav1.7 HEK293 cells
Format: cell-based
Details: peak current after 50 seconds treatment, eight concentrations
Procedure: In order to measure the activities of the inventive compounds as antagonists, an experiment on a blocking effect against the sodium ion channel (Nav1.7) was carried out as follows.
The hNav1.7 HEK293 cell line used was a cell line having a human sodium ion channel 1.7 gene (type IX voltage-gated sodium channel alpha subunit) in human embryonic kidney (HEK) 293 cells and was purchased from Millipore. The medium used was prepared by adding 1% 100×NEAA and 10% heat inactivated FBS to DMEM F-12 and adding 1% P/S as an antibiotic thereto. G-418 as a […] was added during subculture, and the hNav1.7 HEK293 cells were cultured to a confluence of about 80% in a T75 flask in a 5% CO2 incubator at 37° C. for 2 or 3 days and detached from the flask by treatment with 0.25% trypsin solution. Then, the cells were collected by centrifugation and used in the experiment.
The compounds prepared in the Examples of the present invention were dissolved in dimethyl sulfoxide (DMSO) and used in the experiment. 90 mM and 10 mM DMSO stock solutions were prepared from each of the compounds and diluted in an extracellular solution (4 mM KCl, 138 mM NaCl, 1 mM MgCl2, 1.8 mM CaCl2, 5.6 mM glucose, 10 mM HEPES, pH 7.45) at various concentrations so that the final concentration of each compound in DMSO was 0.3% or less.
To measure the sodium ion channel blocking effect, an IonFlux16 Auto patch clamp system (Fluxion, Inc.) and a plate for exclusive use were used. The cells were distributed in an extracellular solution (4 mM KCl, 138 mM NaCl, 1 mM MgCl2, 1.8 mM CaCl2, 5.6 mM glucose, 10 mM HEPES, pH 7.45), and then dispensed in the specified region of the plate, and each of the prepared compound samples was diluted at various concentrations, and then dispensed in the specified region of the plate.
Specifically, eight concentrations per compound were set, and percent inhibition was determined by calculating the percentage of inhibition of the peak current, generated after treating the cells with each concentration of the compound for 50 seconds, relative to the peak current generated before treatment with the compound, and the IC50 value was calculated using the Sigma plot program. In Table 2 below, the percent inhibition of Nav1.7 is rated as follows: […]

T1 sequence (Q15858 whole entry): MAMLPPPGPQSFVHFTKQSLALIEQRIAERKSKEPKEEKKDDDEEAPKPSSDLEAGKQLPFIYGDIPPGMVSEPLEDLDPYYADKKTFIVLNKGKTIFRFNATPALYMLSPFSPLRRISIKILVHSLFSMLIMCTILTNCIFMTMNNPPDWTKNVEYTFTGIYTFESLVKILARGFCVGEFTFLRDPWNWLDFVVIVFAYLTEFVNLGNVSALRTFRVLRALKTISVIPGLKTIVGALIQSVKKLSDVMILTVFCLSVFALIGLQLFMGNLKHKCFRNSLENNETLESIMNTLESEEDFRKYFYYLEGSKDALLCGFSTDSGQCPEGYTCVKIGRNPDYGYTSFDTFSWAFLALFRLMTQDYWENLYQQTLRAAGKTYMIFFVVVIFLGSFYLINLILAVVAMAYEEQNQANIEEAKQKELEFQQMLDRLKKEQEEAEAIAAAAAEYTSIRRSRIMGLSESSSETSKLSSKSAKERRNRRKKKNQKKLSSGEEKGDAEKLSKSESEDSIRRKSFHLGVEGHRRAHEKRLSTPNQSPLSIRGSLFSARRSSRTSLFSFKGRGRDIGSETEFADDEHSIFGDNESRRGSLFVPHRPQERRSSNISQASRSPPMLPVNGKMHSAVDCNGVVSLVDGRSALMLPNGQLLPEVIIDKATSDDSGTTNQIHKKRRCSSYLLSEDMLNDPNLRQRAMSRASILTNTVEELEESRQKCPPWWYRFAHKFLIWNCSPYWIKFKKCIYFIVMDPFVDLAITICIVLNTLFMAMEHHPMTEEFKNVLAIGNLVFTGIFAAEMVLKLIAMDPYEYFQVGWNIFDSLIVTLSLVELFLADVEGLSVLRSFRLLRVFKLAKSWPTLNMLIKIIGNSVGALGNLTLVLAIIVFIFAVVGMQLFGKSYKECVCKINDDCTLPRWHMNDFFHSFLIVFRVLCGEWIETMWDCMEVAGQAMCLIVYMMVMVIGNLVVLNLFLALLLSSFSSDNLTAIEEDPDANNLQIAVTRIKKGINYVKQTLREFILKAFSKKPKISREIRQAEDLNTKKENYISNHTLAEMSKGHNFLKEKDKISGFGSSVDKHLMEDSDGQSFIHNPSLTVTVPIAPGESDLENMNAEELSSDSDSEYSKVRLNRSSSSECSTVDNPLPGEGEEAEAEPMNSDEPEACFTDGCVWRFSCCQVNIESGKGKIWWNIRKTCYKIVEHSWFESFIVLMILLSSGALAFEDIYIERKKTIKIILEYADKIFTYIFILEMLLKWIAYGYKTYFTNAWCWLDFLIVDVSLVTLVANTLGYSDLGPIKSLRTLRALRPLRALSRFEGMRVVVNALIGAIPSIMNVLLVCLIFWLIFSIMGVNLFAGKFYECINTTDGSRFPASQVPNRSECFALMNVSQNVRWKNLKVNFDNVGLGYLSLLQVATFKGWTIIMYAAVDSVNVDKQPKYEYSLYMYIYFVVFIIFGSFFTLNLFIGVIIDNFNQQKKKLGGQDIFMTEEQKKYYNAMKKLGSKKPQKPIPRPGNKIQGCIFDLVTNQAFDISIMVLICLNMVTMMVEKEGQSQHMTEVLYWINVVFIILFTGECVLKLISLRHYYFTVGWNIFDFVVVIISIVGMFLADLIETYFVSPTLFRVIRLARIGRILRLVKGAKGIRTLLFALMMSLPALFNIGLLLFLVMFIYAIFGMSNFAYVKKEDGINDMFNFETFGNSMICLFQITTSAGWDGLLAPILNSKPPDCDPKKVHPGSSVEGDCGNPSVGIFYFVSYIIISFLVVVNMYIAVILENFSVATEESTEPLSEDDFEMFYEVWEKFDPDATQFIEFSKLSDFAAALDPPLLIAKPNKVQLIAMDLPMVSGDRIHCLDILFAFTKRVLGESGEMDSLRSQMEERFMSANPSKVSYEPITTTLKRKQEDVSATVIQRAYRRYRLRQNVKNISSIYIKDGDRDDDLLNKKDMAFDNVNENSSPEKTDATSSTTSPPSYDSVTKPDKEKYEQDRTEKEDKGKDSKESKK

IC50 | Compound
> 100 nM | O=S(=O)(Nc1cscn1)c1cc(Cl)c(Oc2cnc(-c3ccnc(F)c3)cc2-c2ccoc2)cc1F [Example 62, 5-chloro-2-fluoro-4-((2′-fluoro-4-(furan-3-yl)-[2,4′-bipyridin]-5-yl)oxy)-N-(thiazol-4-yl)benzenesulfonamide]
> 100 nM | Cn1cc(-c2cc(-c3ccccc3F)ncc2Oc2cc(F)c(S(=O)(=O)Nc3cscn3)cc2Cl)cn1 [Example 63, 5-chloro-2-fluoro-4-((6-(2-fluorophenyl)-4-(1-methyl-1H-pyrazol-4-yl)pyridin-3-yl)oxy)-N-(thiazol-4-yl)benzenesulfonamide 2,2,2-trifluoroacetate]
> 100 nM | Cn1cc(-c2cc(-c3ccc(F)cc3)ncc2Oc2cc(F)c(S(=O)(=O)Nc3cscn3)cc2Cl)cn1 [Example 65, 5-chloro-2-fluoro-4-((6-(4-fluorophenyl)-4-(1-methyl-1H-pyrazol-4-yl)pyridin-3-yl)oxy)-N-(thiazol-4-yl)benzenesulfonamide 2,2,2-trifluoroacetate]
> 100 nM | Cn1cc(-c2cc(-c3ccc(F)cc3F)ncc2Oc2cc(F)c(S(=O)(=O)Nc3cscn3)cc2Cl)cn1 [Example 66, 5-chloro-4-((6-(2,4-difluorophenyl)-4-(1-methyl-1H-pyrazol-4-yl)pyridin-3-yl)oxy)-2-fluoro-N-(thiazol-4-yl)benzenesulfonamide 2,2,2-trifluoroacetate]
> 100 nM | Cn1cc(-c2cc(-c3ccc(F)c(F)c3)ncc2Oc2cc(F)c(S(=O)(=O)Nc3cscn3)cc2Cl)cn1 [Example 67, 5-chloro-4-((6-(3,4-difluorophenyl)-4-(1-methyl-1H-pyrazol-4-yl)pyridin-3-yl)oxy)-2-fluoro-N-(thiazol-4-yl)benzenesulfonamide 2,2,2-trifluoroacetate]
> 100 nM | Cn1cc(-c2cc(-c3ccnc(F)c3)ncc2Oc2cc(F)c(S(=O)(=O)Nc3cscn3)cc2Cl)cn1 [Example 68, 5-chloro-2-fluoro-4-((2′-fluoro-4-(1-methyl-1H-pyrazol-4-yl)-[2,4′-bipyridin]-5-yl)oxy)-N-(thiazol-4-yl)benzenesulfonamide 2,2,2-trifluoroacetate]
> 100 nM | Cn1cc(-c2cc(-c3cccnc3F)ncc2Oc2cc(F)c(S(=O)(=O)Nc3cscn3)cc2Cl)cn1 [Example 69, 5-chloro-2-fluoro-4-((2′-fluoro-4-(1-methyl-1H-pyrazol-4-yl)-[2,3′-bipyridin]-5-yl)oxy)-N-(thiazol-4-yl)benzenesulfonamide 2,2,2-trifluoroacetate]
> 100 nM | Cn1cc(-c2cc(-c3ccc(F)nc3)ncc2Oc2cc(F)c(S(=O)(=O)Nc3cscn3)cc2Cl)cn1 [Example 70, 5-chloro-2-fluoro-4-((6′-fluoro-4-(1-methyl-1H-pyrazol-4-yl)-[2,3′-bipyridin]-5-yl)oxy)-N-(thiazol-4-yl)benzenesulfonamide 2,2,2-trifluoroacetate]
> 100 nM | Cn1nccc1-c1cc(-c2cccc(F)c2)ncc1Oc1cc(F)c(S(=O)(=O)Nc2cscn2)cc1Cl [Example 71, 5-chloro-2-fluoro-4-((6-(3-fluorophenyl)-4-(1-methyl-1H-pyrazol-5-yl)pyridin-3-yl)oxy)-N-(thiazol-4-yl)benzenesulfonamide]
> 100 nM | O=S(=O)(Nc1cscn1)c1cc(Cl)c(Oc2cnc(-c3cccc(F)c3)cc2-c2ccnc(N3CCNCC3)n2)cc1F [Example 72, 5-chloro-2-fluoro-4-((6-(3-fluorophenyl)-4-(2-(piperazin-1-yl)pyrimidin-4-yl)pyridin-3-yl)oxy)-N-(thiazol-4-yl)benzenesulfonamide]
> 100 nM | O=S(=O)(Nc1nccs1)c1cc(Cl)c(Oc2cnc(-c3cccc(F)c3)cc2-c2cccnc2)cc1F [Example 73, 5-chloro-2-fluoro-4-((6′-(3-fluorophenyl)-[3,4′-bipyridin]-3′-yl)oxy)-N-(thiazol-2-yl)benzenesulfonamide]
> 100 nM | O=S(=O)(Nc1cscn1)c1cc(Cl)c(Oc2cnc(-c3cccc(F)c3)cc2-c2cccnc2)cc1F [Example 74, 5-chloro-2-fluoro-4-((6′-(3-fluorophenyl)-[3,4′-bipyridin]-3′-yl)oxy)-N-(thiazol-4-yl)benzenesulfonamide]
> 100 nM | O=S(=O)(Nc1cscn1)c1cc(Cl)c(Oc2cnc(-c3ccnc(F)c3)cc2-c2cccnc2)cc1F [Example 75, 5-chloro-2-fluoro-4-((2″-fluoro-[3,4′:2′,4″-terpyridin]-5′-yl)oxy)-N-(thiazol-4-yl)benzenesulfonamide]
> 100 nM | O=S(=O)(Nc1cscn1)c1cc(Cl)c(Oc2cnc(-c3cccc(F)c3)cc2-c2cncnc2)cc1F [Example 76, 5-chloro-2-fluoro-4-((6-(3-fluorophenyl)-4-(pyrimidin-5-yl)pyridin-3-yl)oxy)-N-(thiazol-4-yl)benzenesulfonamide]
> 100 nM | O=S(=O)(Nc1cscn1)c1cc(Cl)c(Oc2cnc(-c3ccnc(F)c3)cc2-c2cncnc2)cc1F [Example 77, 5-chloro-2-fluoro-4-((2′-fluoro-4-(pyrimidin-5-yl)-[2,4′-bipyridin]-5-yl)oxy)-N-(thiazol-4-yl)benzenesulfonamide]
> 100 nM | O=S(=O)(Nc1cscn1)c1cc(Cl)c(Oc2cnc(-c3cccc(F)c3)cc2-c2cn[nH]c2)cc1F [Example 78, 5-chloro-2-fluoro-4-((6-(3-fluorophenyl)-4-(1H-pyrazol-4-yl)pyridin-3-yl)oxy)-N-(thiazol-4-yl)benzenesulfonamide]
> 100 nM | O=S(=O)(Nc1cscn1)c1cc(Cl)c(Oc2cnc(-c3cccc(F)c3)cc2-c2ccnc(F)c2)cc1F [Example 79, 5-chloro-2-fluoro-4-((2′-fluoro-6-(3-fluorophenyl)-[4,4′-bipyridin]-3-yl)oxy)-N-(thiazol-4-yl)benzenesulfonamide]
> 100 nM | O=S(=O)(Nc1cscn1)c1cc(Cl)c(Oc2cnc(-c3ccc(F)c(F)c3)cc2-c2ccnc(F)c2)cc1F [Example 80, 5-chloro-4-((6-(3,4-difluorophenyl)-2′-fluoro-[4,4′-bipyridin]-3-yl)oxy)-2-fluoro-N-(thiazol-4-yl)benzenesulfonamide]
> 100 nM | O=S(=O)(Nc1cscn1)c1cc(Cl)c(Oc2cnc(-c3cc(Cl)ccc3F)cc2-c2cccnc2)cc1F [Example 81, 5-chloro-4-((6′-(5-chloro-2-fluorophenyl)-[3,4′-bipyridin]-3′-yl)oxy)-2-fluoro-N-(thiazol-4-yl)benzenesulfonamide]
> 100 nM | O=S(=O)(Nc1cscn1)c1cc(Cl)c(Oc2cnc(-c3ccc(F)c(F)c3)cc2-c2cccnc2)cc1F [Example 82, 5-chloro-4-((6′-(3,4-difluorophenyl)-[3,4′-bipyridin]-3′-yl)oxy)-2-fluoro-N-(thiazol-4-yl)benzenesulfonamide]
> 100 nM | N#Cc1cc(S(=O)(=O)Nc2cscn2)ccc1Oc1cnc(-c2cccc(F)c2)cc1-c1cn[nH]c1 [Example 83, 3-cyano-4-((6-(3-fluorophenyl)-4-(1H-pyrazol-4-yl)pyridin-3-yl)oxy)-N-(thiazol-4-yl)benzenesulfonamide]
> 100 nM | N#Cc1cc(S(=O)(=O)Nc2cscn2)ccc1Oc1cnc(-c2cccc(F)c2)cc1-c1cccnc1 [Example 84, 3-cyano-4-((6′-(3-fluorophenyl)-[3,4′-bipyridin]-3′-yl)oxy)-N-(thiazol-4-yl)benzenesulfonamide]
